Among the data in US20040259934A1, “Inhibiting Coronaviridae viral replication and treating Coronaviridae viral infection with nucleoside compounds” (priority 2003, published 2004) are EC50 values, retold here.

The term pEC50 denotes the negative decadic logarithm of the EC50, by convention in mol/L. A lower pEC50 goes with a large EC50.

Assay [1] deals with Human coronavirus OC43. The experiment in a line: Neutral red uptake assay against a coronavirus. The class given is cell-based. The settings on record: Betacoronavirus 1, OC43 / SC1, BSC-1. The protocol:
(§1) The assays employed to measure activity against coronavirus are described below (wherein CPE=cytopathic effect; FBS=fetal bovine serum; MEM=minimal essential medium; MOI=multiplicity of infection; and NR=neutral red):
(§2) Human coronavirus OC43 was obtained from the American Type Culture Collection (ATCC, Manassas, Va., USA). This virus was originally isolated from the tracheal washings of a person with cold-like symptoms.
(§3) B-SC-1 cells propagated from adult African green kidney cells were grown in MEM supplemented with 0.1% NaHCO3 and 10% FBS. When performing antiviral assays, serum was reduced to 2% and 50 μg/mL gentamicin was added to the medium.
After performing the CPE inhibition assay above, an additional cytopathic detection method was used, in which medium was removed from each well of a plate scored for CPE from a CPE inhibition assay, 0.034% NR was added to each well of the plate and the plate incubated for 2 hr at 37° C. in the dark. The NR solution was then removed from the wells. After rinsing and aspirating to dryness, the remaining dye was extracted for 30 min at room temperature in the dark from the cells using absolute ethanol buffered with Sörenson citrate buffer. […] Absorbances at 540 nm and 450 nm were read with a microplate reader (Bio-Tek EL 1309; Bio-Tek Instruments, Inc., Winooski, Vt.). Absorbance values were expressed as percentages of untreated controls and EC50 and IC50 values were calculated by regression analysis.

Assay [2] concerns Human coronavirus OC43. As to the kind of experiment: Cytopathic effect (CPE) inhibition assay against a coronavirus. The settings on record: Betacoronavirus 1, OC43 / SC1, BSC-1, 144 h. The class given is cell-based. On the procedure:
as §1, §2, §3
Each compound was diluted in MEM using a four log dilution series (i.e., 100, 10, 1.0, 0.1 μg/ml) and 100 μL added to the appropriate wells of a 96 well cell culture plate with confluent cells (see plate format below). The coronavirus was diluted in MEM 2% FBS to an MOI=0.001 in a volume of 100 μL and added immediately to plate (usually within 5 minutes of drug addition). […] The plates were then scored for virus cytopathic effect at each dilution of compound tested. The 50% effective concentration (EC50) was calculated by regression analysis using the means of the CPE ratings at each concentration of compound.

pEC50: −log10 of the molar value.

As for `C[C@@]1(O)[C@H](O)[C@@H](CO)O[C@H]1n1cnc2c(N)ncnc21` [2′-C-methyladenosine], the pEC50 with Human coronavirus OC43 [1] was no less than 5.00; in the assay on Human coronavirus OC43 [2], greater than 4.00.
On to `C[C@@]1(O)[C@H](O)[C@@H](CO)O[C@H]1n1ccc(N)nc1=O` [2′-C-methylcytidine], for which the pEC50 was no less than 5.00 in the assay on Human coronavirus OC43 [1] and greater than 4.00 in the assay with Human coronavirus OC43 [2].
`C[C@@]1(O)[C@H](O)[C@@H](CO)O[C@H]1n1ccc2c(N)ncnc21` [Example 1, 4-Amino-7-(2-C-methyl-β-D-ribofuranosyl)-7H-pyrrolo[2,3-d]pyrimidine]: the pEC50 is no less than 5.00 in the assay with Human coronavirus OC43 [1] and greater than 4.00 with Human coronavirus OC43 [2].
